From US20150105252A1, “SUBSTITUTED PYRAZOLES AS HERBICIDES” (E I DU PONT DE NEMOURS AND COMPANY, priority 2013, published 2015)

Legend:
barnyardgrass = assay: Test C preemergence; type: in vivo, Echinochloa crus-galli; details: preemergence; for Plant response rating, Barnyardgrass: 125 g ai/ha, scale 0 to 100, 0 = no effect, 100 = complete control
Procedure, shortened: (§1)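 Pre- and postemergence greenhouse screen; vehicle was a non-phytotoxic solvent mix with surfactant. Preemergence: treatment applied right after sowing into loam and sand. Postemergence: treated at 1–4 leaves. Visual rating at 13–15 days, 100 = complete control.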

morningglory [1] = assay: Test A preemergence; type: in vivo, Ipomoea spp.; details: preemergence; for Morningglory plant response rating (0 to 100 scale): 125 g ai/ha, visual injury approx. 10 days after treatment; for Morningglory plant response rating: 500 g ai/ha, visual injury after approx. 10 days, 0 to 100 scale (0 no effect, 100 complete control)
Procedure, shortened: (§2)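 Greenhouse test in loam soil/sand blend; compounds formulated in non-phytotoxic solvent with surfactant, applied as preemergence directed soil spray or postemergence to plants 2–10 cm tall at one- to two-leaf stage. Injury rated visually versus untreated controls after approximately 10 days on a 0 (no effect) to 100 (complete control) scale.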

blackgrass [2] = assay: Test C preemergence; type: in vivo, Alopecurus myosuroides; details: preemergence; for Plant response rating, Blackgrass: 125 g ai/ha, scale 0 to 100, 0 = no effect, 100 = complete control
Procedure, shortened: as §1

ryegrass, Italian = assay: Test C preemergence; type: in vivo, Lolium multiflorum; details: preemergence; for Plant response rating, Ryegrass, Italian: 125 g ai/ha, scale 0 to 100, 0 = no effect, 100 = complete control
Procedure, shortened: as §1

morningglory [3] = assay: Test C preemergence; type: in vivo, Ipomoea coccinea; details: preemergence; for Plant response rating, Morningglory: 125 g ai/ha, scale 0 to 100, 0 = no effect, 100 = complete control
Procedure, shortened: as §1

blackgrass [4] = assay: Test C postemergence; type: in vivo, Alopecurus myosuroides; details: for Plant response rating (scale of 0 to 100 where 0 is no effect and 100 is complete control), Blackgrass: Postemergence, 31 g ai/ha, visually evaluated after 13 to 15 days; for Blackgrass plant response rating / Plant response rating, Blackgrass: postemergence; for Blackgrass plant response rating: 62 g ai/ha, scale 0 to 100
Procedure, shortened: as §1

morningglory [5] = assay: Test C postemergence; type: in vivo, Ipomoea coccinea; details: for Plant response rating (scale of 0 to 100 where 0 is no effect and 100 is complete control), Morningglory: Postemergence, 31 g ai/ha, visually evaluated after 13 to 15 days; for Morningglory plant response rating / Plant response rating, Morningglory: postemergence; for Morningglory plant response rating: 62 g ai/ha, scale 0 to 100
Procedure, shortened: as §1

corn = assay: Test A preemergence; type: in vivo, Zea mays; details: preemergence; for Corn plant response rating (0 to 100 scale): 125 g ai/ha, visual injury approx. 10 days after treatment; for Corn plant response rating: 500 g ai/ha, visual injury after approx. 10 days, 0 to 100 scale (0 no effect, 100 complete control)
Procedure, shortened: as §2

johnsongrass = assay: Test C preemergence; type: in vivo, Sorghum halepense; details: preemergence; for Plant response rating, Johnsongrass: 125 g ai/ha, scale 0 to 100, 0 = no effect, 100 = complete control
Procedure, shortened: as §1

wheat = assay: Test A preemergence; type: in vivo, Triticum aestivum; details: preemergence; for Wheat plant response rating (0 to 100 scale): 125 g ai/ha, visual injury approx. 10 days after treatment; for Wheat plant response rating: 500 g ai/ha, visual injury after approx. 10 days, 0 to 100 scale (0 no effect, 100 complete control)
Procedure, shortened: as §2

pigweed [6] = assay: Test C preemergence; type: in vivo, Amaranthus retroflexus; details: preemergence; for Plant response rating, Pigweed: 125 g ai/ha, scale 0 to 100, 0 = no effect, 100 = complete control
Procedure, shortened: as §1

pigweed [7] = assay: Test C postemergence; type: in vivo, Amaranthus retroflexus; details: for Pigweed plant response rating / Plant response rating, Pigweed: postemergence; for Pigweed plant response rating: 62 g ai/ha, scale 0 to 100
Procedure, shortened: as §1

ragweed = assay: Test C postemergence; type: in vivo, Ambrosia elation; details: for Plant response rating, Ragweed: postemergence
Procedure, shortened: as §1

[8] = 31 g ai/ha, visual rating, scale 0 to 100 (0 no effect, 100 complete control), 13 to 15 days
[9] = 62 g ai/ha, scale 0 to 100 (0 no effect, 100 complete control), 13 to 15 days
[10] = 250 g ai/ha, scale 0 to 100, 0 is no effect, 100 is complete control
[11] = 250 g ai/ha, scale 0 to 100 (0 no effect, 100 complete control)
[12] = 125 g ai/ha, scale 0 to 100, 0 no effect, 100 complete control
[13] = Postemergence, 31 g ai/ha, visually evaluated after 13 to 15 days

O=C(NC1CC1)c1cc(CCCl)n(Cc2ccnc(C(F)(F)F)c2)n1 [Compound 144]
Barnyardgrass plant response rating (barnyardgrass; [8]): 75 | Barnyardgrass plant response rating (barnyardgrass; [9]): 98 | Plant response rating, Barnyardgrass (barnyardgrass; 13 to 15 days): 100 | Barnyardgrass plant response rating (barnyardgrass; [10]): 100 | Morningglory plant response rating (0 to 100 scale) (morningglory [1]): 80 | Morningglory plant response rating (morningglory [1]): 100 | Blackgrass plant response rating (blackgrass [2]; [8]): 40 | Blackgrass plant response rating (blackgrass [2]; [9]): 40 | Plant response rating, Blackgrass (blackgrass [2]; 13 to 15 days): 90 | Blackgrass plant response rating (blackgrass [2]; [10]): 90 | Ryegrass, Italian plant response rating (ryegrass, Italian; [8]): 5 | Ryegrass, Italian plant response rating (ryegrass, Italian; [9]): 30 | Plant response rating, Ryegrass, Italian (ryegrass, Italian; 13 to 15 days): 85 | Ryegrass, Italian plant response rating (ryegrass, Italian; [10]): 90 | Morningglory plant response rating (morningglory [3]; [8]): 60 | Morningglory plant response rating (morningglory [3]; [9]): 100 | Plant response rating, Morningglory (morningglory [3]; 13 to 15 days): 100 | Morningglory plant response rating (morningglory [3]; [10]): 100 | Plant response rating (scale of 0 to 100 where 0 is no effect and 100 is complete control), Blackgrass (blackgrass [4]): 20 | Blackgrass plant response rating (blackgrass [4]): 5 | Plant response rating, Blackgrass (blackgrass [4]; [11]): 35 | Plant response rating, Blackgrass (blackgrass [4]; [12]): 30 | Plant response rating (scale of 0 to 100 where 0 is no effect and 100 is complete control), Morningglory (morningglory [5]): 35 | Morningglory plant response rating (morningglory [5]): 40 | Plant response rating, Morningglory (morningglory [5]; [11]): 98 | Plant response rating, Morningglory (morningglory [5]; [12]): 85 | Corn plant response rating (0 to 100 scale) (corn): 10 | Corn plant response rating (corn): 80 | Johnsongrass plant response rating (johnsongrass; [8]): 0 | Johnsongrass plant response rating (johnsongrass; [9]): 35 | Plant response rating, Johnsongrass (johnsongrass; 13 to 15 days): 75 | Johnsongrass plant response rating (johnsongrass; [10]): 100 | Wheat plant response rating (0 to 100 scale) (wheat): 50 | Wheat plant response rating (wheat): 100 | Pigweed plant response rating (pigweed [6]; [8]): 98 | Pigweed plant response rating (pigweed [6]; [9]): 100 | Plant response rating, Pigweed (pigweed [6]; 13 to 15 days): 100 | Pigweed plant response rating (pigweed [6]; [10]): 100 | Plant response rating (scale of 0 to 100 where 0 is no effect and 100 is complete control), Pigweed (pigweed [7]; [13]): 65 | Pigweed plant response rating (pigweed [7]): 75 | Plant response rating, Pigweed (pigweed [7]; [11]): 95 | Plant response rating, Pigweed (pigweed [7]; [12]): 85 | Plant response rating (scale of 0 to 100 where 0 is no effect and 100 is complete control), Ragweed (ragweed; [13]): 10 | Plant response rating, Ragweed (ragweed; [11]): 75 | Plant response rating, Ragweed (ragweed; [12]): 35

CCOc1cc(C(=O)NOC(C)C)nn1Cc1ccnc(C(F)(F)F)c1 [Compound 153]
Barnyardgrass plant response rating (barnyardgrass; [8]): 15 | Barnyardgrass plant response rating (barnyardgrass; [9]): 95 | Plant response rating, Barnyardgrass (barnyardgrass; 13 to 15 days): 100 | Barnyardgrass plant response rating (barnyardgrass; [10]): 100 | Morningglory plant response rating (0 to 100 scale) (morningglory [1]): 100 | Morningglory plant response rating (morningglory [1]): 100 | Blackgrass plant response rating (blackgrass [2]; [8]): 80 | Blackgrass plant response rating (blackgrass [2]; [9]): 90 | Plant response rating, Blackgrass (blackgrass [2]; 13 to 15 days): 90 | Blackgrass plant response rating (blackgrass [2]; [10]): 90 | Ryegrass, Italian plant response rating (ryegrass, Italian; [8]): 5 | Ryegrass, Italian plant response rating (ryegrass, Italian; [9]): 50 | Plant response rating, Ryegrass, Italian (ryegrass, Italian; 13 to 15 days): 90 | Ryegrass, Italian plant response rating (ryegrass, Italian; [10]): 90 | Morningglory plant response rating (morningglory [3]; [8]): 30 | Morningglory plant response rating (morningglory [3]; [9]): 80 | Plant response rating, Morningglory (morningglory [3]; 13 to 15 days): 100 | Morningglory plant response rating (morningglory [3]; [10]): 100 | Plant response rating (scale of 0 to 100 where 0 is no effect and 100 is complete control), Blackgrass (blackgrass [4]): 0 | Blackgrass plant response rating (blackgrass [4]): 5 | Plant response rating, Blackgrass (blackgrass [4]; [11]): 5 | Plant response rating, Blackgrass (blackgrass [4]; [12]): 5 | Plant response rating (scale of 0 to 100 where 0 is no effect and 100 is complete control), Morningglory (morningglory [5]): 65 | Morningglory plant response rating (morningglory [5]): 85 | Plant response rating, Morningglory (morningglory [5]; [11]): 80 | Plant response rating, Morningglory (morningglory [5]; [12]): 70 | Corn plant response rating (0 to 100 scale) (corn): 90 | Corn plant response rating (corn): 100 | Johnsongrass plant response rating (johnsongrass; [8]): 5 | Johnsongrass plant response rating (johnsongrass; [9]): 35 | Plant response rating, Johnsongrass (johnsongrass; 13 to 15 days): 75 | Johnsongrass plant response rating (johnsongrass; [10]): 95 | Wheat plant response rating (0 to 100 scale) (wheat): 100 | Wheat plant response rating (wheat): 100 | Pigweed plant response rating (pigweed [6]; [8]): 20 | Pigweed plant response rating (pigweed [6]; [9]): 95 | Plant response rating, Pigweed (pigweed [6]; 13 to 15 days): 100 | Pigweed plant response rating (pigweed [6]; [10]): 98 | Pigweed plant response rating (pigweed [7]): 25 | Plant response rating, Pigweed (pigweed [7]; [11]): 80 | Plant response rating, Pigweed (pigweed [7]; [12]): 25 | Plant response rating, Ragweed (ragweed; [11]): 85 | Plant response rating, Ragweed (ragweed; [12]): 40
